From EP1056700B1, “MEDICINAL USES OF PHENYLALKANOLS AND DERIVATES” (ZingoTX Pty Ltd, priority 1997, dated 1999)

Key:
[1] = system: DRG neuronal cells; assay: Peak [Ca^2+]i transients in cultured dorsal root ganglion neurons (Fura-2); type: cell-based, rat; conditions: for Number of capsaicin-sensitive cells responding / Peak [Ca^2+]i (Average ±SD): 2 mM Ca^2+
Description: DRG from neonatal (3-5 days old) rat or adult Sprague-Dawley rats were incubated in Hanks CMF saline with 0.05% collagenase and 0.25% trypsin for 25 min at 37° C. Individual cells were obtained by trituration with fire polished Pasteur pipettes of diminishing diameters. Neurones were isolated from the cell suspension in 30% Percoll and then plated on collagen coated coverslips or in 24-well plates, then cultured in neurobasal medium with B27 supplement, 50 ng/ml 2.5 S nerve growth factor, 2 mM 1-glutamine and 100 U/ml penicillin/streptomycin. Cultures were maintained at 37° C with 5% CO2. 30% Percoll increases the percentage of capsaicin-sensitive DRG neurones up to 70%. For peak [Ca^2+]i transients measurements, cells on coverslips were incubated with 5 µM Fura-2 AM for 30 min at 37° C. The coverslips were then mounted on a chamber attached to a fast sample application perfusion system which allows changing solutions in the second range. Recordings were made on the stage of a Nikon Diaphot inverted microscope fitted with a Nikon 40 x Fluo (NA 0.85) DL Ph3 or 40 x Fluo (NA 1.3) oil objective. [Ca^2+]i was calculated from dual excitation wavelength (340/380 nm) fluorescence measurements following an intracellular calibration procedure by the Grynkiewicz equation, using MCID M2/M4 v.3.0 (Imaging Res. Inc.) software. Cells were continuously perfused with a solution consisting of 140 mM NaCl, 2 mM CaCl2, 5 mM KCl, 20 mM HEPES, 10 mM glucose, pH 7.4. To study KCl evoked depolarisation, 50 mM NaCl was replaced by equimolar KCl. Cytoplasmic localisation of Fura-2 was tested with the Mn^2+ quenching technique (Dedov and Roufogalis, 1998). All experiments were performed at room temperature (20-23°C).
Typical changes in [Ca^2+]i upon depolarisation were evoked by 50 mM KCl and by application of 1 µM capsaicin; both were applied for 30 sec. Capsaicin-evoked peak [Ca^2+]i transients are characterised by a fast rise and long-steady state [Ca^2+]i clearance from the cytoplasm. In capsaicin-sensitive cells the half-time of cytoplasmic Ca^2+ clearance was proportional to the amplitudes of peak [Ca^2+]i transients.
To examine the effect of gingerol derivatives, one or several compounds in succession at a concentration of 10 µM were applied for 1 min to the DRG neuronal cells followed by washing out for 4 min with physiological solution. To the capsaicin-sensitive cells, 10 µM capsaicin and 50 mM KCl were applied, respectively, to confirm the viability of the cells. In addition, morphological appearances of the cells were also examined at the end of experiment. […]

[2] = biological target: T1, Lipoxygenase (LP) (Rattus norvegicus, UniProt P12527); assay: Lipoxygenase assay with cell-free enzyme from RBL 2H3 cells (EIA); type: biochemical; conditions: for activity at 10 µM: final concentration of 10 µM
T1 construct: cell-free enzyme (Wong et al, 1991) prepared from rat basophilic leukemia (RBL) 2H3 cell lines; endogenous in cells; host or cells: RBL 2H3 (rat basophilic leukemia), 15,000 g supernatant of cells disrupted by nitrogen cavitation
T1 sequence (P12527 1-673): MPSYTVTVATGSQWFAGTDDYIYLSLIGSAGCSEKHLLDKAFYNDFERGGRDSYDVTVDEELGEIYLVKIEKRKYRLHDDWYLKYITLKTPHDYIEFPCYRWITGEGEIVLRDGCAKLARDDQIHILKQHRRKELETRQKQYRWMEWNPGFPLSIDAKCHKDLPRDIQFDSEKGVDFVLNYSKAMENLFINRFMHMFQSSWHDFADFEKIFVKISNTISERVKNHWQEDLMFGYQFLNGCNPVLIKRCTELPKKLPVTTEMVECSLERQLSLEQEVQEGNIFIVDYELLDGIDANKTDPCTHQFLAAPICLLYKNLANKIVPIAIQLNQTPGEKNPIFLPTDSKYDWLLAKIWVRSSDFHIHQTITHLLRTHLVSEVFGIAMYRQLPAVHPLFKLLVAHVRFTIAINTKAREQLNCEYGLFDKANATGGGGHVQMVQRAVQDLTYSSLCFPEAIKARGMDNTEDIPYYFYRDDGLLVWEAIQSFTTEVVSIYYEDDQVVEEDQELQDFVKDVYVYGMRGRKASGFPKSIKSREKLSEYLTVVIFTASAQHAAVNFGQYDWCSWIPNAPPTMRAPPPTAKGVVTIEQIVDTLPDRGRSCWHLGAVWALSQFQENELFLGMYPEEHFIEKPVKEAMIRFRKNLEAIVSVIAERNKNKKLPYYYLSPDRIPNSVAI
Description: Lipoxygenase (LP) assay was performed with cell-free enzyme (Wong et al, 1991) prepared from rat basophilic leukemia (RBL) 2H3 cell lines. Cells were cultured in EMEM containing 10% fetal calf serum and antibiotic until cells reached confluence. Harvested cells were resuspended in Hepes (10 mM) buffer, pH 7.4, containing 1 mM EDTA at 1 x 10^7 cells/ml, and disrupted by nitrogen cavitation using a Parr bomb at 750 psi for 15 min. The broken cells were centrifuged at 15,000 g for 30 min. Aliquots (0.1 ml) of the supernatant were preincubated with or without drugs in Hepes buffer (10 mM Hepes, pH 7, 1 mM EDTA and 150 mM NaCl) for 5 min, and the reaction was initiated with the addition of 50 µl of CaCl2 (16 mM), 50 µl of ATP (2 mM), 5 µl of PAF (2.5 mg/ml) and 5 µl of AA (2.5 mM). The reaction mixture ([…]) was incubated at room temperature for a further 8 min, then diluted with EIA buffer at 1/200 and 1/2000 dilutions and stored on ice for EIA following the protocol provided with the kit.
Validation of LP enzyme activity was carried out by a UV spectrophotometric method in which the enzyme activity was characterised against various concentrations of Ca^2+, ATP, PAF and AA with the measurement of the formation of diene conjugated products of LP at 235 nm.
All compounds were dissolved in DMSO and assayed at a final concentration of 10 µM. NDGA was used as reference compound. The concentration of DMSO in the assay was maintained at 1.5%.

[3] = system: Cyclo-oxygenase (COX); assay: Cyclo-oxygenase assay in RBL 2H3 cells (PGD2 EIA); type: cell-based, rat
Description: Cyclo-oxygenase (COX) assay was performed with cells in culture prepared from rat basophilic leukemia (RBL) 2H3 cell lines. Cells were cultured in EMEM containing 10% fetal calf serum and antibiotic until cells reached confluence. Harvested cells were subsequently seeded on 24-well plates at 1 x 10^6 cells/ml then incubated at 37°C for 3 hours. Cells were washed twice with incubation buffer (1.5 ml) containing 5 mM Hepes, 140 mM NaCl, 5 mM KCl, 0.6 mM MgCl2, 1 mM CaCl2 and […]. Cells were then covered with 0.49 ml of buffer, followed by addition of samples/solvents (0.005 ml) and incubated at 37 °C for 5 min on an orbital shaker. Arachidonic acid (0.005 ml, containing 50% EtOH) was subsequently added, and the plate was incubated at similar conditions for a further 10 min. The supernatant (0.1 ml) was aliquoted for methoxime derivatisation of PGD2, which was carried out by heating the supernatant with methoxime solution (1:1) at 60 °C for 30 min according to the instructions provided with the kit. The resultant solution was diluted with EIA buffer and stored on ice for EIA, following the protocol provided with the kit.
Validation of COX enzyme activity was carried out using EIA in which the enzyme activity was characterised against various concentrations of AA and a time course of enzyme activity.
[…] Indomethacin was used as reference compound. The concentration of DMSO in the assay was maintained at 1.5%.

[4] = system: guinea pig atria; assay: Organ bath assay on isolated guinea pig atria (rate and force of contraction)
Description: Male guinea pigs, 3-4 weeks old, were killed by rapid cervical dislocation without induced anaesthesia. Then, the guinea pigs were dissected to isolate the atria which were immediately mounted vertically in an organ bath containing Krebs-Henseleit solution oxygenated with carbogen.
One gram tension was applied to the atria and the base line continuously adjusted until it was stable for 20 mins. The rate and force of contraction were recorded using Mac Lab equipment.
Test substances in DMSO were assayed to a maximum concentration of 50 µM at a final concentration of 2.5 % of DMSO.

[5] = biological target: T2, SR Ca^2+-ATPase (Canis lupus familiaris, UniProt O46674); assay: Sarcoplasmic reticulum Ca^2+-ATPase assay; type: biochemical, dog; conditions: result in words
T2 construct: Effect of gingerols and their derivatives on the Ca^2+-ATPase activity of dog cardiac SR; from tissue; host or cells: dog heart (cardiac sarcoplasmic reticulum)
T2 sequence (O46674 whole entry): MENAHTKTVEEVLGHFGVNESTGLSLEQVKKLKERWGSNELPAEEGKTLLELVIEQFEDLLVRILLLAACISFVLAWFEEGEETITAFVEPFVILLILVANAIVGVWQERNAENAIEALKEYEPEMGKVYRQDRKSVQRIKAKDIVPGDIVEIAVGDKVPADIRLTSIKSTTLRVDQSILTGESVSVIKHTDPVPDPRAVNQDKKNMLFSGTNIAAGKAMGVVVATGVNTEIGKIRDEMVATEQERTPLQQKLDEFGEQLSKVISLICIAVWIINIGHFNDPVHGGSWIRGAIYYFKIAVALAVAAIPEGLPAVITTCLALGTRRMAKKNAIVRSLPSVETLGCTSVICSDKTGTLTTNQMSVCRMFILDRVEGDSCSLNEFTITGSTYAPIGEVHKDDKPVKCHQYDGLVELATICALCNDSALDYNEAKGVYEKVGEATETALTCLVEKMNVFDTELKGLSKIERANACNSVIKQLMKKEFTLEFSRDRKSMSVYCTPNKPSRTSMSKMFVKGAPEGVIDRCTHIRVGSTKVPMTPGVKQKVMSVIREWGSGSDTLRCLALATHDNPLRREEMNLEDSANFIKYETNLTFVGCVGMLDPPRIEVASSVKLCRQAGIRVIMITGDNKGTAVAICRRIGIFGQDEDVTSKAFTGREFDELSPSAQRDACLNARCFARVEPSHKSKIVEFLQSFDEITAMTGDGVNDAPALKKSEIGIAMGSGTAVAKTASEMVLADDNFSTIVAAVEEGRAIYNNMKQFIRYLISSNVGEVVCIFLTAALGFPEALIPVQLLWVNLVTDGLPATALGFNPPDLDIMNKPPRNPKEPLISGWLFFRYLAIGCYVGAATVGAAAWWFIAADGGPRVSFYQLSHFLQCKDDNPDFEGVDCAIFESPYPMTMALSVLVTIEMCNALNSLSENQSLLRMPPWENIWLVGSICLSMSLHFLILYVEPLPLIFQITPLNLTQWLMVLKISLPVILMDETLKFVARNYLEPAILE
Description: A portion at each concentration (54 µl) was aliquoted into 4 designated wells of the microplate (two of four wells were controls). Each well was mixed with ATP solution (20 mM, 6 µl), except the controls, using an 8 channel pipette. The controls were assayed in the absence of ATP or calcium.
The plate was incubated with the lid on, for 30 min at 37°C, colour reagent (160 µl) was then added and mixed with citrate solution (34%, 30 µl). The plate was developed at room temperature for 30 min then absorbance at 655 nm was read from the microplate reader. The Ca^2+-ATPase activity was quantitated, from a Pi standard curve, as concentration of liberated inorganic phosphate.
Stock solutions (10 mM) of test substance were prepared in DMSO, then series dilutions were made either in DMSO or in 1M HEPES to produce the dose-response concentrations. The maximum concentration of DMSO in the final assay solution was 2.5%.
Each concentration of test substance was assayed in duplicate in the presence and absence of ATP or calcium. Phosphate standards are run on each plate as follows:
Effect of gingerols and their derivatives on the Ca^2+-ATPase activity of dog cardiac SR.

[6] = result in words, guinea pig atria

CCCCCCCCCC(O)C(=O)c1ccc(O)c(OC)c1 (centres unmarked) [2-hydroxy-1-(4-hydroxy-3-methoxyphenyl)undecan-1-one]
Number of capsaicin-sensitive cells responding ([1]; 10 µM applied for 1 min): 2
Peak [Ca^2+]i (Average ±SD) ([1]; 10 µM applied for 1 min): 215 ± 7 nM
activity at 10 µM [2]: 61%
Cyclooxygenase activity % activity ([3]; final concentration of 10 µM): 95%

COc1cc(CNC(=O)CCCC/C=C/C(C)C)ccc1O [Capsaicin, reference compound]
Number of capsaicin-sensitive cells responding ([1]; high responses, 10 µM): 5
Peak [Ca^2+]i (Average ±SD) ([1]; high responses, 10 µM): 824 ± 122 (high responses) nM
evoked [Ca^2+]i transients ([1]; in Ca^2+-free medium or on application of ruthenium red (1 µM)): abolished or greatly diminished
Number of capsaicin-sensitive cells responding ([1]; low responses, 10 µM): 10
Peak [Ca^2+]i (Average ±SD) ([1]; low responses, 10 µM): 134 ± 78 (low responses) nM
tachycardial and inotropic effects on guinea pig atria ([4]; result in words): tachycardial and inotropic effects

C[C@H]1O[C@@H](O[C@H]2[C@@H](O)C[C@H](O[C@H]3[C@@H](O)C[C@H](O[C@H]4CC[C@@]5(C)[C@H](CC[C@@H]6[C@@H]5C[C@@H](O)[C@]5(C)[C@@H](C7=CC(=O)OC7)CC[C@]65O)C4)O[C@@H]3C)O[C@@H]2C)C[C@H](O)[C@@H]1O [Digoxin, reference compound]
time for tension to reach maximum after addition of a dose ([4]; guinea pig atria): a few mins

COc1ccc2c(c1)c(CC(=O)O)c(C)n2C(=O)c1ccc(Cl)cc1 [Indomethacin, reference compound]
Cyclooxygenase activity % activity ([3]; 1 µM): 23%

CC(Cc1ccc(O)c(O)c1)C(C)Cc1ccc(O)c(O)c1 (centres unmarked) [NDGA, reference compound]
activity at 0.5 µM ([2]; 0.5 µM): 20%

CCCCCCCC=CC(=O)CCc1ccc(O)c(OC)c1 [[8]-shogaol, 1-(4-hydroxy-3-methoxyphenyl)dodecan-4-ene-3-one, reference compound]
Number of capsaicin-sensitive cells responding ([1]; 10 µM applied for 1 min): 2
Peak [Ca^2+]i (Average ±SD) ([1]; 10 µM applied for 1 min): 110 ± 56 nM
activity at 10 µM [2]: 0%
Cyclooxygenase activity % activity ([3]; final concentration of 10 µM): 21%

COc1cc(CCC(=O)CC(O)CCCCCCC(O)CC(=O)CCc2ccc(O)c(OC)c2)ccc1O (centres unmarked) [bisgingerol, 5,12-dihydroxy-1,16-bis(4-hydroxy-3-methoxyphenyl)hexadecane-3,14-dione]
FORCE OF CONTRACT^n [4, 6]: inactive
HEART RATE [4, 6]: inactive

CCCCCCCC(O)CC(=O)CCc1ccc2c(c1)OCO2 (centres unmarked) [drawing 42]
SR Ca^2+-ATPase [5]: inactive
